This passage reports Drug metabolism results from ChEMBL document CHEMBL3525934 (Drug Metab Dispos, 2013).

Holding throughout (assay type): ADME
What all share (settings): 0.5 h

One data set addresses Cytochrome P450 2C19 (Homo sapiens, UniProt P33261). The experiment in a line: Drug metabolism in supersomes expressing human recombinant CYP2C19 assessed as enzyme-mediated cyanide adduct formation at 100 uM after 30 mins measured per nmol of P450 by HPLC analysis in presence of KCN.
The target of data set [1] is T1, Cytochrome P450 2C8 (Homo sapiens, UniProt P10632).
T1 sequence (P10632 whole entry): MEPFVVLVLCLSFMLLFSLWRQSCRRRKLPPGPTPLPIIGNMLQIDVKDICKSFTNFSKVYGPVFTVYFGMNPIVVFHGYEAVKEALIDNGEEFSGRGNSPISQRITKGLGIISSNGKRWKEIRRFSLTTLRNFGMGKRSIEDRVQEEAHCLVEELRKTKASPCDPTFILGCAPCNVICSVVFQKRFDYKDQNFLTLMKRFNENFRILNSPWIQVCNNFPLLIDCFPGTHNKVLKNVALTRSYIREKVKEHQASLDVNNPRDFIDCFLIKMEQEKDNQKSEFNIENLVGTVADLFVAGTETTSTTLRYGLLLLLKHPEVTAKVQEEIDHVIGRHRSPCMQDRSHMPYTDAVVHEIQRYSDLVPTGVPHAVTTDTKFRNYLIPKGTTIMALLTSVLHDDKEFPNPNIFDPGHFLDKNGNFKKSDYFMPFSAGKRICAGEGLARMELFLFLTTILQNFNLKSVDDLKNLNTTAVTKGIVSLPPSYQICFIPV
The experiment in a line: Drug metabolism in supersomes expressing human recombinant CYP2C8 assessed as enzyme-mediated cyanide adduct formation at 100 uM after 30 mins measured per nmol of P450 by HPLC analysis in presence of KCN.

Data set [2] deals with T2, Cytochrome P450 1B1 (Homo sapiens, UniProt Q16678).
T2 sequence (Q16678 whole entry): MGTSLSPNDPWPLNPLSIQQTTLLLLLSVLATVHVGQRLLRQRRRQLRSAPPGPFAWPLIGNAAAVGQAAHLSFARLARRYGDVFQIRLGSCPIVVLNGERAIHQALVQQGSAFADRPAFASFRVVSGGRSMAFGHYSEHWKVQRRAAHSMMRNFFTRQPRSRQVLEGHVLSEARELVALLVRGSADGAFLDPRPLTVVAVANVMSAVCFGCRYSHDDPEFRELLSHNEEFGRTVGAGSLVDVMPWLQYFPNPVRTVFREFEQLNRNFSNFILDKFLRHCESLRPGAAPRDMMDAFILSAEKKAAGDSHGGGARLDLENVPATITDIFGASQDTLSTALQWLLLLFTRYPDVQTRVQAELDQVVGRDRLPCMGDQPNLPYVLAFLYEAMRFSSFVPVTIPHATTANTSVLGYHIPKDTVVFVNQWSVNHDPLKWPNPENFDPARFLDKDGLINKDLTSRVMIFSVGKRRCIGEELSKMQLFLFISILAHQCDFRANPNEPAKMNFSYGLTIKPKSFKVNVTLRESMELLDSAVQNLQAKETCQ
The experiment in a line: Drug metabolism in supersomes expressing human recombinant CYP1B1 assessed as enzyme-mediated total GSH conjugate formation at 10 uM after 30 mins measured per nmol of P450 by HPLC analysis in presence of GSH and hGST P1-1.

The next data set has as its target T3, Cytochrome P450 1A1 (Homo sapiens, UniProt P04798).
T3 sequence (P04798 whole entry): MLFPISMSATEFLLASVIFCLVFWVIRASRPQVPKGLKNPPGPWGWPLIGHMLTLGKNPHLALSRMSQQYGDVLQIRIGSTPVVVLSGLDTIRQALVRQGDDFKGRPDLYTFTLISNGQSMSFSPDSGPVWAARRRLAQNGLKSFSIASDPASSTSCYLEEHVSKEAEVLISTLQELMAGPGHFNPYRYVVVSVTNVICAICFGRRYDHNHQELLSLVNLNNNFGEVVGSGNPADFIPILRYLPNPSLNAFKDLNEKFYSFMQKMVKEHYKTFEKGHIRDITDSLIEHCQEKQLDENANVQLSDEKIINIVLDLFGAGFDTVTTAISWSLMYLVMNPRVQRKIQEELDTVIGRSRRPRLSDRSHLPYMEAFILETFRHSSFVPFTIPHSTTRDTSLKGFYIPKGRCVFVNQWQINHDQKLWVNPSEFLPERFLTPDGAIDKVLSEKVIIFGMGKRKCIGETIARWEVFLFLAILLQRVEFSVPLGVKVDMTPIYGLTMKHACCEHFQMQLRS
The experiment in a line: Drug metabolism in supersomes expressing human recombinant CYP1A1 assessed as enzyme-mediated total GSH conjugate formation at 10 uM after 30 mins measured per nmol of P450 by HPLC analysis in presence of GSH and hGST P1-1.

In a further data set the target is Cytochrome P450 2C9 (Homo sapiens, UniProt P11712). The experiment in a line: Drug metabolism in supersomes expressing human recombinant CYP2C9 assessed as enzyme-mediated N-desmethylclozapine metabolite formation at 100 uM after 30 mins measured per nmol of P450 by HPLC analysis.
Chain of Cytochrome P450 2C9 (P11712 whole entry): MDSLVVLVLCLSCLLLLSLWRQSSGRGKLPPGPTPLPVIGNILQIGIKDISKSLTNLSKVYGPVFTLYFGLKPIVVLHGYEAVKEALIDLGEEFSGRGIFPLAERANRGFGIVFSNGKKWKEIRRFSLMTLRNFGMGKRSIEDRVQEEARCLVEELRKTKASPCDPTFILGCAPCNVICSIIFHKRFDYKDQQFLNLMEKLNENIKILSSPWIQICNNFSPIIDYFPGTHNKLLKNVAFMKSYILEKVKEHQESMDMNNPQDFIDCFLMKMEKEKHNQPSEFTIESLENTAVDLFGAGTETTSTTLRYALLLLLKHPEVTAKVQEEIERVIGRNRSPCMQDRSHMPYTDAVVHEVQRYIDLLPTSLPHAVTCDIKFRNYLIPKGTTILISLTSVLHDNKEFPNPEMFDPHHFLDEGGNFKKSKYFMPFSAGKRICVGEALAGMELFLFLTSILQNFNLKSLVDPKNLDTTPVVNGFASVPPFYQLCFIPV
Data set [3] deals with T2, Cytochrome P450 1B1. The experiment in a line: Drug metabolism in supersomes expressing human recombinant CYP1B1 assessed as enzyme-mediated N-desmethylclozapine metabolite formation at 100 uM after 30 mins measured per nmol of P450 by HPLC analysis.
In a further data set the target is Cytochrome P450 2D6 (Homo sapiens, UniProt P10635). The experiment in a line: Drug metabolism in supersomes expressing human recombinant CYP2D6 assessed as enzyme-mediated cyanide adduct formation at 100 uM after 30 mins measured per nmol of P450 by HPLC analysis in presence of KCN.
Chain of Cytochrome P450 2D6 (P10635 whole entry): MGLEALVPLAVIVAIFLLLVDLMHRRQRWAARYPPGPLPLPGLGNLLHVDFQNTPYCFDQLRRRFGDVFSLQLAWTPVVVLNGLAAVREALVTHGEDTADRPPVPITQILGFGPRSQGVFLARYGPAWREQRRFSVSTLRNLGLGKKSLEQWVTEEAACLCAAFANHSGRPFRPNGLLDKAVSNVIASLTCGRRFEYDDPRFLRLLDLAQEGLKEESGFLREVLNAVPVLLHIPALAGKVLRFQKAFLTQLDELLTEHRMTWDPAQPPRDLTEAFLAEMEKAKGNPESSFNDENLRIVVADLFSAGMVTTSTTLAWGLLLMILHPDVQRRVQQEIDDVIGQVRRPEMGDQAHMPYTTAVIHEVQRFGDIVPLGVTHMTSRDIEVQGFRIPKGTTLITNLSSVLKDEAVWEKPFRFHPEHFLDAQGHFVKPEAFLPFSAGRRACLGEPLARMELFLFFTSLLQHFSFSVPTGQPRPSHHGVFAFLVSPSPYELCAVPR
The target in data set [4] is T1, Cytochrome P450 2C8. The experiment in a line: Drug metabolism in supersomes expressing human recombinant CYP2C8 assessed as enzyme-mediated clozapine-N-oxide metabolite formation at 100 uM after 30 mins measured per nmol of P450 by HPLC analysis.
In a further data set the target is T4, Cytochrome P450 1A2 (Homo sapiens, UniProt P05177).
T4 sequence (P05177 whole entry): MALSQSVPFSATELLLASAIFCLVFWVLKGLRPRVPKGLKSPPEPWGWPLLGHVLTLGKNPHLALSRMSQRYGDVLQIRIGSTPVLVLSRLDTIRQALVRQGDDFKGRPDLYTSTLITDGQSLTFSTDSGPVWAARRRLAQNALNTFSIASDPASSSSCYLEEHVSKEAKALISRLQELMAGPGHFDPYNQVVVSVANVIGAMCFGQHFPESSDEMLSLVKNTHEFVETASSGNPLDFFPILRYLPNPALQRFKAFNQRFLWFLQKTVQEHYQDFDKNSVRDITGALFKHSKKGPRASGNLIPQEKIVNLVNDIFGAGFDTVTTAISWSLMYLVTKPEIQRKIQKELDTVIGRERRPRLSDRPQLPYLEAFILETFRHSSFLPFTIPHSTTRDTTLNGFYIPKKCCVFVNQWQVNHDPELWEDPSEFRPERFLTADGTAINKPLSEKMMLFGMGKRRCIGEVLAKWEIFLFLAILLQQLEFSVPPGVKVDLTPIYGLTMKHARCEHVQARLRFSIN
The experiment in a line: Drug metabolism in supersomes expressing human recombinant CYP1A2 assessed as enzyme-mediated total GSH conjugate formation at 100 uM after 30 mins measured per nmol of P450 by HPLC analysis in presence of GSH and hGST P1-1.

Molecules are shown by their SMILES.

Chain of Cytochrome P450 2C19 (P33261 whole entry): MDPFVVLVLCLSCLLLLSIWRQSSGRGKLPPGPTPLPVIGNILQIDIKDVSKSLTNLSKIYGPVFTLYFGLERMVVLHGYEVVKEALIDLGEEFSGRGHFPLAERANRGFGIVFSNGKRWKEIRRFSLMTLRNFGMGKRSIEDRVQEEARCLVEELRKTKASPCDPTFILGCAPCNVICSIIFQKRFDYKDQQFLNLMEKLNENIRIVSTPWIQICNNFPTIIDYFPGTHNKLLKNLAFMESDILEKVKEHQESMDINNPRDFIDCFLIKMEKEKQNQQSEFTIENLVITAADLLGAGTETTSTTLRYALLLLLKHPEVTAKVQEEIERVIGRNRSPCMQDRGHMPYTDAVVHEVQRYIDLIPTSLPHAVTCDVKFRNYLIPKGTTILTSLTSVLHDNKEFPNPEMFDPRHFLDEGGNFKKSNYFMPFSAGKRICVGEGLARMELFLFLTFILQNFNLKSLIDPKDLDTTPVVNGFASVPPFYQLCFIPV

For `CN1CCN(C2=Nc3cc(Cl)ccc3Nc3ccccc32)CC1` [CLOZAPINE], the Drug metabolism was 0.03 nmol/min on Cytochrome P450 2C19; 0.058 nmol/min at Cytochrome P450 2C8 [1]; 0.15 nmol/min at Cytochrome P450 1B1 [2]; 0.3 nmol/min at Cytochrome P450 1A1; 0.22 nmol/min at Cytochrome P450 2C9; 0.94 nmol/min on Cytochrome P450 1B1 [3]. Moreover, the Drug metabolism at Cytochrome P450 2D6 stood at 0.64 nmol/min; on Cytochrome P450 2C8 [4] it was 0.075 nmol/min/nmol P450; on Cytochrome P450 1A2, 0.25 nmol/min.
